Data taken from patent US7229985B2, “Amorphous substance of tricyclic triazolobenzazepine derivative” (Meiji Seika Kaisha, Ltd., priority 2001, dated 2007).
In brackets after ≈: the same amount, converted by molar mass.

Legend:
[1] = Solubility in glycerin, propylene glycol, Macrogol 400 and the like; assay type: physicochemical
[2] = Solubility in methylene chloride; assay type: physicochemical
[3] = Dissoluvability Test (1): solubility in water or 1 wt % aqueous methylcellulose solution at 37° C.; assay type: physicochemical
Method: Water or a 1 wt % aqueous methylcellulose solution was provided as a test liquid, and solubility of various samples in the test liquid was examined. Each sample in an amount of about 100 mg in terms of compound A was added to 500 mL of the test liquid kept at 37° C., and the mixture was stirred with a paddle at 200 rpm. Sampling was carried out at predetermined time intervals, and the samples were filtered through a membrane filter (Sumplep LCR 13-LG, manufactured by Millipore Corporation). The concentration of compound A in each of the filtrates was analyzed by HPLC.
In Test Example 2, HPLC was carried out under the following measuring conditions.
Detector: Ultraviolet absorptiometer (measuring wavelength: 240 nm)
Column: Inertsil ODS 2 4.6×250 mm in which a stainless tube having an inner diameter of 4.6 mm and a length of 25 cm was packed with a 5-μm octadecylsilyl silica gel for liquid chromatography.
Column temp.: Around 40° C.
Mobile phase: 0.1 wt % ammonium acetate:methanol (45:55)

[4] = Oral absorption of pulverized crystal; assay type: in vivo; conditions: orally administered to dogs
Method: In addition, an experiment in which a pulverized crystal of crystalline compound A is prepared according to the description of Japanese Patent Laid-Open No. 185013/1987 disclosing a drug, which has been rendered easily absorbable by pulverizing was carried out. The treated drug is orally administered to experimental animals such as dogs.

[5] = Absorption Test: oral administration, plasma compound B concentration; assay type: in vivo, beagles
Method: The sample produced in Comparative Example 1 or Example 1 was suspended in a 1 wt % aqueous methylcellulose solution. The suspension was administered orally to beagles (n=6) which had been subjected to fasting overnight. The difference in absorption among the samples was evaluated by comparing the area under the plasma drug concentration-time curve (AUC).
The plasma drug concentration in the collected blood was quantitatively determined according roughly to the following method.
Blood (about 0.7 mL) collected from the cephalic vein was centrifuged (4° C., about 9000×g, 10 min) in the presence of heparin to obtain plasma. Methanol (400 μL) and an internal standard substance solution (sodium salt of 7-methyl-4(5H),10-dioxo-2H-1,2,3-triazolo[4,5-c][1]benzazepine, 100 ng/mL, 100 μL) were added to the plasma (100 μL), and the mixture was stirred and centrifuged (4° C., about 9000×g, 10 min).
The supernatant was evaporated to dryness at room temperature under a nitrogen gas stream, and 150 μL of a mixed solution composed of a 10 mmol/L phosphate buffer (pH 7.0) and a methanol (8:2) was added to the residue for redissolution. The solution was then filtered by a centrifugal filter (Centricut Ultra-Mmini (KURABO INDUSTRIES LTD.), 4° C., about 9000×g, 10 min), and the filtrate was analyzed as a sample by HPLC. […]
Fluorescence detection wavelength: Ex 270 nm, Em 466 nm (GAIN=100, response=standard) […]

[6] = test liquid 1 wt % aqueous methylcellulose solution, 37° C. (FIG. 3)
[7] = test liquid water, 37° C., about 100 mg in 500 mL, paddle 200 rpm (FIG. 2), level reached

| Compound | solubility in glycerin, propylene glycol, Macrogol 400 and the like [1] | solubility in methylene chloride [2] | concentration of dissolution [3, 6] | concentration of dissolution [3, 7] | improvement in absorption [4] | solubility ([3]; 1 wt % aqueous methylcellulose solution, aqueous with cosolvent or surfactant or cyclodextrin, thermodynamic from solid, in a 1 wt % methylcellulose solution at 37° C.) | time for which concentration of dissolution was maintained ([3]; test liquid 1 wt % aqueous methylcellulose solution, 37° C.) | concentration of dissolution after lowering ([3]; test liquid water, 37° C., value to which the concentration then lowered (FIG. 2)) | plasma compound B concentration over time versus crystalline compound of Comparative Example 1 ([5]; beagles, dose one-eighth of the dose of the crystalline compound) | plasma compound B concentration versus crystalline compound of Comparative Example 1 ([5]; suspension in 1 wt % aqueous methylcellulose, fasted beagles (FIG. 5)) |
| --- | --- | --- | --- | --- | --- | --- | --- | --- | --- | --- |
| COc1cc2[nH]c(=O)c3nn(C(OC(=O)OC(C)C)C(C)C)nc3c(=O)c2cc1OC (stereo not drawn) [Comparative Example 1, 2-(1-Isopropoxycarbonyloxy-2-methylpropyl)-7,8-dimethoxy-4(5H), 10-dioxo-2H-1,2,3-triazolo[4,5-c][1]benzazepine] | not on such a level that can make crystalline compound A pharmaceutically usable | about 1 % by weight | not more than 1 μg/mL | not more than 1 μg/mL | not more than expected | – | – | – | – | – |
| COc1cc2[nH]c(=O)c3nn(C(OC(=O)OC(C)C)C(C)C)nc3c(=O)c2cc1OC (stereo not drawn) [Example 1, 2-(1-isopropoxycarbonyloxy-2-methylpropyl)-7,8-dimethoxy-4(5H), 10-dioxo-2H-1,2,3-triazolo[4,5-c][1]benzazepine] | – | – | not less than 18 μg/mL | about 5 μg/mL | – | 15 to 20 µg/mL (≈ 34.7 to 46.2 µM) | 4 h | about 3 μg/mL | much higher | significantly higher |
